BindingDB's records for doi:10.1021/jm970166j (Roche Bioscience, 1997)

How the values were obtained:
[1] = biological target: T1, 5-hydroxytryptamine receptor 1A (Mus musculus, UniProt Q64264); assay: The compound's binding affinity against 5-hydroxytryptamine 1A receptor
T1 sequence (Q64264 whole entry): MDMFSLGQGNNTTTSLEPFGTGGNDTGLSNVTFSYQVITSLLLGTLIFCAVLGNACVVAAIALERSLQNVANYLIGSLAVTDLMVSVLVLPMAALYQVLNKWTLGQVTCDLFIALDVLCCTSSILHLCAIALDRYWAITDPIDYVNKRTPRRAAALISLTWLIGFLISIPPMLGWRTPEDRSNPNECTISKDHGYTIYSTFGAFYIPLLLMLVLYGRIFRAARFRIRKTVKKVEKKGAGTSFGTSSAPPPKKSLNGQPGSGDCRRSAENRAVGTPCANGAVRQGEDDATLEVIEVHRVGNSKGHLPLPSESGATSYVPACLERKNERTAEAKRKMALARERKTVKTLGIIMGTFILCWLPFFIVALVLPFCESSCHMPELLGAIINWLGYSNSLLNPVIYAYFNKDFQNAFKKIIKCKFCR

D(2) dopamine receptor = D(2) dopamine receptor (Homo sapiens, UniProt P14416); assay: The compound's binding affinity against Dopamine receptor D2
[2] = biological target: T2, Alpha-2B adrenergic receptor (Rattus norvegicus, UniProt P19328); assay: The compound's binding affinity against Alpha-2B adrenergic receptor from rat kidney homogenate in the presence of phentolamine
T2 sequence (P19328 whole entry): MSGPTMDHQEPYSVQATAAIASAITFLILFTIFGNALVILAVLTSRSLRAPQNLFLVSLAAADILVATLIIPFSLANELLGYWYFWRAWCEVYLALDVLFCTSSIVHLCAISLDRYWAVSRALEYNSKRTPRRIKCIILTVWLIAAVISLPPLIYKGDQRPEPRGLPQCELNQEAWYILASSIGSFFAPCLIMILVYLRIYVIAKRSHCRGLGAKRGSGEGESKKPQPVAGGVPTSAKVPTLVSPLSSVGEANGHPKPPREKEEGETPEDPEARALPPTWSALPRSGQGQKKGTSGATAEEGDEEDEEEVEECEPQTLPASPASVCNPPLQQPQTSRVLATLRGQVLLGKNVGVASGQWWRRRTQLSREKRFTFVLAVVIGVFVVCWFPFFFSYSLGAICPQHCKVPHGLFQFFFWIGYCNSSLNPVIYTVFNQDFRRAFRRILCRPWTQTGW

Sequence of D(2) dopamine receptor (P14416 whole entry): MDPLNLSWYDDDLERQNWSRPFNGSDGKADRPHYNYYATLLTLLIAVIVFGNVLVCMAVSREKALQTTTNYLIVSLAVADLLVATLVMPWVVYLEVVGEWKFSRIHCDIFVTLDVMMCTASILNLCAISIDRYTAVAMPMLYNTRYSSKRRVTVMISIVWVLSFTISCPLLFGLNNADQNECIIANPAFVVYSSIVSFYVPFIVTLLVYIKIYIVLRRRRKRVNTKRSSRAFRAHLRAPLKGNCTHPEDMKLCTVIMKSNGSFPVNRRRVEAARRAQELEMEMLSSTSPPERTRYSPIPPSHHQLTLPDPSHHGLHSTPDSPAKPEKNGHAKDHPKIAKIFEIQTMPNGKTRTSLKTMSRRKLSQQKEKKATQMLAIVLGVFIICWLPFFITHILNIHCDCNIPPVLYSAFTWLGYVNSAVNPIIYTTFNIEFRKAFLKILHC

Row | Compound | pKi [1] | pKi (D(2) dopamine receptor) | pKi [2]
1 | COc1cc(F)ccc1N1CCN(CCCNc2c(C(=O)N(C)C)cnc3c2c(C)nn3C)CC1 | 6.5 | 6.4 | –
2 | Cc1nn(C)c2ncc(C(=O)N(C)C)c(NCCCN3CCN(c4ccccc4OCC(F)(F)F)CC3)c12 | 7.5 | 8.1 | 8.6
3 | COc1ccccc1N1CCN(CCCNc2ncccc2C(=O)N(C)C)CC1 | 7.6 | 7.4 | –
4 | COc1cc(F)ccc1N1CCN(CCCNc2ncccc2C(=O)N(C)C)CC1 | 6.7 | 6.7 | 6.5
